The text below walks through data of patent US20240317727A1 (Duke University, priority 2018, published 2024).

By ΔTm is commonly meant the change in melting temperature against a reference sample.

Assay [1] deals with T1, recombinant HSF1 DNA-binding domain (DBD) (Homo sapiens, UniProt Q00613).
T1 sequence (Q00613 15-120): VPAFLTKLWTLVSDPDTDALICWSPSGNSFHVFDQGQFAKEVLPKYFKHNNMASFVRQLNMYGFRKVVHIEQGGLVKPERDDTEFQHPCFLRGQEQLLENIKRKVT
Nature of the assay: Differential Scanning Fluorimetry (DSF), HSF1 DBD melting temperature. The note with it: for ΔTm at 25 µM: Table 1, 5 μM HSF1 DBD, 25PM Compound, positive = stabilizes, negative = destabilizes HSF1; for effect on melting temperature of HSF1: thermal denaturation profiling, FIG. 2. (Differential scanning fluorimetry follows unfolding on heating by fluorescence.)

Assay [2] deals with heat shock induced chaperone (Hsp25 and Hsp70) expression. Nature of the assay: Heat shock induced chaperone expression in MEFs, immunoblotting. It counts as cell-based, mouse. The note with it: heat shock 42° C. 30 mins, 6-hour recovery, FIG. 3. As to the method: The MEFs were then subjected to heat shock stress at 42° C. for 30 mins to activate HSF1. After heat shock, the MEFs were incubated at 37° C. for a 6-hour recovery. The whole cell lysates were collected at the end of the experiment, and proteins of interest, including Hsp25, Hsp70, HSF1 and GAPDH (as loading control) were assessed by immunoblotting with the corresponding antibody.
In general terms: A western blot detects proteins with antibodies after separation by electrophoresis.

The target in assay [3] is recombinant protein Hsc70 (Homo sapiens, UniProt P11142). Kind of assay: Thermal denaturation of Hsc70 (selectivity). The following applies: selectivity in binding, FIG. 2.
Chain of recombinant protein Hsc70 (P11142 whole entry, species assumed): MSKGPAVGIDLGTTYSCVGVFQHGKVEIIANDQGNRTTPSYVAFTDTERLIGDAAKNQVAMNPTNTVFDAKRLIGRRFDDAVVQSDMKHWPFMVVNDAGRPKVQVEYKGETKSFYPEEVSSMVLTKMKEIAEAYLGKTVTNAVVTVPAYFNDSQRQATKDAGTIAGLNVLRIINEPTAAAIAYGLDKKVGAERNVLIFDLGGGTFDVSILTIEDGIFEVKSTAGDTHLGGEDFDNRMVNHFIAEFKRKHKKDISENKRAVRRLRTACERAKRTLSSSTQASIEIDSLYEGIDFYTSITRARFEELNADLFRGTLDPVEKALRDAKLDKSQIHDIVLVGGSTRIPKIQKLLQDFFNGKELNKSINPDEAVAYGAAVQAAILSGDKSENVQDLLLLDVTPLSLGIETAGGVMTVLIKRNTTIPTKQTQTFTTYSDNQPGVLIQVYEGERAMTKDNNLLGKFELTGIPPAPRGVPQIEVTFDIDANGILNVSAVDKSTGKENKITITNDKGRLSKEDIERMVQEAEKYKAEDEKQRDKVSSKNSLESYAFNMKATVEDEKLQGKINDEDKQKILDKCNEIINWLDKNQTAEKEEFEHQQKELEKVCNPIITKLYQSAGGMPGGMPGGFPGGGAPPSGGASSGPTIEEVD

As to `O=C(Nc1ccccc1)Nc1ccccc1` [1,3-diphenylurea, reference compound], in assay [1] (thermal denaturation assay), the “binding to HSF1” value is recorded as “fails to bind HSF1”. Besides, the “heat shock induced chaperone (Hsp25 and Hsp70) expression” value in assay [2] was “showed no impact on HSF1 activity”.

Regarding `O=C(Nc1ccc(F)cc1)Nc1ccc(Br)c(C(F)(F)F)c1` [Compound 0005, 1-(4-bromo-3-(trifluoromethyl)phenyl)-3-(4-fluorophenyl)urea], in assay [1], the ΔTm at 25 µM was found to be 5.1 °C and the “effect on melting temperature of HSF1” value is “stabilized the melting temperature of HSF1”. Besides, in assay [3], the “effect on melting of unrelated protein Hsc70” value is “did not affect the melting”.

Regarding `O=C(Nc1ccc(Cl)cc1)Nc1csc([N+](=O)[O-])c1` [Compound 0009], in assay [1], the ΔTm at 25 µM amounted to 4.1 °C and the “effect on melting temperature of HSF1” value is “stabilized the melting temperature of HSF1”. In assay [3], the “effect on melting of unrelated protein Hsc70” value is on record as “did not affect the melting”.

Regarding `COc1cccc(-c2cnc(Nc3ccc(F)cc3)s2)c1` [Compound 0050], in assay [1], the ΔTm at 25 µM was 2.93 °C and the “effect on melting temperature of HSF1” value was “stabilized the melting temperature of HSF1”. Further, the “effect on melting of unrelated protein Hsc70” value in assay [3] is recorded as “did not affect the melting”.
